According to publication PMC9416745, “The Effect of 1,2,4-Triazole-3-thiol Derivatives Bearing Hydrazone Moiety on Cancer Cell Migration and Growth of Melanoma, Breast, and Pancreatic Cancer Spheroids” (Pharmaceuticals, 2022):

Experiments:
[1] = system: human malignant melanoma cell line IGR39; assay: MTT cell viability assay, IGR39; type: cell-based; conditions: 50 µM, 72 h
Description: (§1) The effect of synthesized compounds on cell viability was studied using 3-(4,5-dimethylthiazol-2-yl)-2,5-diphenyltetrazolium bromide (MTT; Sigma-Aldrich Co., St Louis, MO, USA) assay, as described elsewhere. Briefly, IGR39, MDA-MB-231, Panc-1, and HF cells were seeded in 96-well plates (Corning) in triplicate at a volume of 100 μL (IGR39, MDA-MB-231 and Panc-1: 4 × 10^3 cells/well; HF: 5 × 10^3 cells/well). After 24 h, cells were treated with 50 μM of tested compounds. After 72 h, the MTT reagent was added and cells were incubated for 4 h. Then the medium was aspirated, and the formed formazan crystals were dissolved in 100 μL DMSO (Sigma-Aldrich Co., St. Louis, MO, USA). The absorbance was measured at 570 and 630 nm using a multi-detection microplate reader. The compound effect on cell viability was calculated using the formula:(1) Relative cell viability (%)=A−A0/ANC−A0 where
(§2) • A—mean of absorbance of the tested compound, • A0—mean of absorbance of blank (no cells, positive control), and • ANC—mean of absorbance of negative control (only cells, no treatment).
(§3) The compound serial dilutions from 50 µM to 1.56 µM were made in a medium and added to the cells in triplicates. The EC50 value representing the concentration of a compound causing 50% reduction of cancer cell metabolic activity was calculated using the Hill equation.

[2] = system: IGR39, MDA-MB-231 and Panc-1 cell lines; assay: MTT cell viability assay, result stated for all tested cancer cell lines together; type: cell-based, human; conditions: 72 h; for EC50: Homo sapiens, range over cancer cell lines, read-out: EC50 values against the tested cancer cell lines (range)
Description: as §1, §2, §3

[3] = system: Panc-1 cells; assay: MTT, effect of 10 µM compound on Panc-1 cell viability (Procedure S1); type: cell-based; conditions: Homo sapiens, after 72 h
Description: (§4) The ‘Wound healing’ assay was used to evaluate compound activity on cell migration. […] The effect of this concentration on cell viability after 24 h, 48 h and 72 h was studied in separate experiments (Figures S58–60) using the MTT assay (the procedure is described in Supplementary Materials).
(§5) Procedure S1. Evaluation of 10 µM compound concentration effect on cell line viability.
(§6) The effect of 10 µM compounds on cell viability was studied using 3-(4,5-dimethylthiazol-2-yl)-2,5-diphenyltetrazolium bromide (MTT; Sigma-Aldrich Co., St Louis, MO, USA) assay. IGR39, MDA-MB-231, and Panc-1 cells were seeded in 96-well plates (Corning) in triplicates at a volume of 100 µL at 4 × 10^3 cells/well). After 24 h, the cells were treated with 10 µM of compounds 4, 7, 8, 10, 14, 17, and 18. After 24 h, 48 h and 72 h (only Panc-1 cells), the MTT reagent has been added and cells were incubated for 4 h. Then the medium was aspirated, and the formed formazan crystals were dissolved in 100 µL DMSO (Sigma-Aldrich Co., St. Louis, MO, USA). The absorbance was measured at 570 and 630 nm using a multi-detection microplate reader. Compound effect on cell viability was calculated according to a formula:
(§7) Relative cell viability ሺ%ሻ = A− A଴
(§8) A – mean of absorbance of tested compound, A0 – mean of absorbance of blank (no cells, positive control), ANC – mean of absorbance of negative control (only cells, no treatment).

[4] = system: IGR39, MDA-MB-231 and Panc-1 cell migration; assay: 'Wound healing' cell migration assay, stated for all tested cell lines; type: cell-based, human; conditions: 10 µM, compared to the control
Description: (§9) Briefly, melanoma IGR39, human triple-negative breast cancer MDA-MB-231, and pancreatic carcinoma Panc-1 cells were seeded in 24-well plates at a density of 6 × 10^4 cells/well and incubated for 48 h in previously described cell culture medium at 37°C in a humidified atmosphere containing 5% CO2. Then the scratch was made using a 100 µL pipette tip. Cells were washed once with PBS, and the fresh medium containing 10 µM of compounds 4, 7, 8, 10, 14, 17, and 18 was added. Medium containing 0.1% DMSO was used as a negative control. Cells were incubated at 37 °C in a humidified atmosphere containing 5% CO2.
(§10) The ‘Wounds’ were captured at the intervals of 0 h, 24 h, 48 h and 72 h (only for the Panc-1 cell line) from scratch under the phase contrast microscope at a 4× magnification. The wound area was analysed using the ImageJ program (National Institute of Health, Bethesda, MD, USA).

[5] = system: IGR39, MDA-MB-231 and Panc-1 tumour spheroids; assay: 3D cell cultures (spheroids), stated for all three spheroid types; type: cell-based, human; conditions: 10 µM, 8 days of incubation
Description: (§11) Cancer cell spheroids were formed using the magnetic 3D Bioprinting method, as described elsewhere. Briefly, melanoma IGR39, triple-negative breast cancer MDA-MB-231 cells, pancreatic cancer Panc-1 cells, and human fibroblasts at 70% confluency in a 6-well plate were incubated with Nanoshuttle (n3D Biosciences, Inc., Houston, TX, USA) for 8 h at 37°C in a humidified atmosphere containing 5% CO2. Then cells were trypsinized, centrifuged, and seeded into an ultra-low attachment 96-well plate in a volume of 100 µL (1.5 × 10^3 cancer cells and 1.5 × 10^3 human fibroblasts/well). The plate was placed on a magnetic drive and incubated for 2 days at 37°C in a humidified atmosphere containing 5% CO2. Then the fresh medium containing 10 µM of the tested compound was added to the wells. Spheroids were captured every two days using the Olympus IX73 inverted microscope (OLYMPUS CORPORATION, Tokyo, Japan). Quantitative analysis of compound anticancer activity in spheroids was performed using ImageJ, version 1.53o (National Institutes of Health, USA) and Microsoft Office Excel 2016 software (Microsoft Corporation, Redmond, WA, USA).
(§12) On the last day of incubation, 10 µL of WST-1 reagent (Sigma-Aldrich Co, St. Louis, MO, USA) was added to each well with spheroids. After 10 h of incubation, 50 µL of liquid from each well were transferred to the new 96-well plate and the absorbance was measured at 460 and 530 nm using a multi-detection microplate reader. Spheroid cell viability was calculated using a formula provided in Section 3.2.2.

[6] = system: melanoma IGR39 spheroids; assay: 3D cell cultures (spheroids), IGR39; type: cell-based, human; conditions: 10 µM, 8 days of incubation
Description: as §11, §12

[7] = system: human triple-negative breast cancer MDA-MB-231; assay: MTT cell viability assay, MDA-MB-231; type: cell-based; conditions: 50 µM, 72 h
Description: as §1, §2, §3

[8] = system: IGR39 cells; assay: MTT, effect of 10 µM compound on IGR39 cell viability (Procedure S1); type: cell-based; conditions: Homo sapiens, IGR-39, after 48 h of incubation
Description: as §4, §5, §6, §7, §8

[9] = system: MDA-MB-231 cell migration; assay: 'Wound healing' cell migration assay, MDA-MB-231; type: cell-based, human; conditions: 10 µM, both after 24 h and 48 h of incubation
Description: as §9, §10

[10] = system: melanoma A375 cell; parameters: method as in PMID 21700700; conditions: cited from earlier work
[11] = system: melanoma cell; parameters: method as in PMID 27572607; conditions: cited from earlier work

Structure (SMILES) | EC50 [2] | viability at 10 µM [3] | activity in 3D cell cultures (spheroids) [5] | melanoma IGR39 spheroid growth [6] | melting point | viability at 10 µM [8] | MDA-MB-231 cell migration [9] | other results
O=C(CSc1nnc(CCNc2ccccc2)n1-c1ccccc1)NN=C1C(=O)Nc2ccccc21 [Compound 4, N′-(2-oxoindolin-3-ylidene)-2-((4-phenyl-5-(2-(phenylamino)ethyl)-4H-1,2,4-triazol-3-yl)thio)acetohydrazide] | 2 to 17 µM | 74.3 ± 3.4% | most active | mostly inhibited | 252 to 253 °C |  |  | selectivity against the melanoma IGR39 cell line (screening) [1]: moderate selectivity; effect on cell migration [4]: did not possess activity
O=C(CSc1nnc(CCNc2ccccc2)n1-c1ccccc1)NN=Cc1ccc[nH]1 [Compound 14, N′-((1H-pyrrol-2-yl)methylene)-2-((4-phenyl-5-(2-(phenylamino)ethyl)-4H-1,2,4-triazol-3-yl)thio)acetohydrazide] | 2 to 17 µM |  | most active | mostly inhibited | 215 to 216 °C | 67.9 ± 1.8% | migrated slower | activity against the IGR39 cell line (screening) [1]: least active; activity towards the triple-negative breast cancer cell line (screening) [7]: relatively higher activity
O=C(CSc1nnc(CCNc2ccccc2)n1-c1ccccc1)NN=Cc1ccccc1O [Compound 17, N′-(2-hydroxybenzylidene)-2-((4-phenyl-5-(2-(phenylamino)ethyl)-4H-1,2,4-triazol-3-yl)thio)acetohydrazide] |  | 79.7 ± 3.8% | most active | began to disintegrate |  | 76 ± 7.2% | migrated slower | activity against all tested cancer cell lines (screening) ([2]; 50 µM): most active
CN(C)/N=N/c1[nH]cnc1C(N)=O [Dacarbazine] |  |  |  |  |  |  |  | concentrations inhibiting melanoma A375 cell proliferation [10]: 25 to 100 µM
CC(C)(C)c1nc(-c2cccc(NS(=O)(=O)c3c(F)cccc3F)c2F)c(-c2ccnc(N)n2)s1 [dabrafenib] |  |  |  |  |  |  |  | concentration reducing melanoma cell viability [11]: nanomolar
